Key:
Type in all cases: cell-based
[1] = system: P. fluorescens; experiment: MIC prediction by neural network from digital microscopy of AST test wells
From the text: FIG. 8 provides an illustration of how data that can be used in an optimized AST method 101 can be captured from a test well. Test well 20 is embodied by a “384” style test well, having a clear viewing bottom. The volume of inoculum in test well 20 may be set to 20 microliters to reduce the amount of materials such as bulk diluents required by AST method 101 and/or minimize light artifacts and provide sampling of a consistent number of microbes from the 1:250 dilution of the 0.5 MacFarland inoculum. Decreasing the volume of inoculum in test well 20 generally increases the light artifacts. In some instances, capturing a single vertical plane 103 at 20× objective whereby AST camera 35 is set at 0.33 microns/pixel may be sufficient for sampling the inoculum and ensuring that each individual microbe is recognizable. However, these parameters are configurable and may change as desired by the user or the underlying needs of the system. Capturing three focal sites spaced about 5 microns apart within single vertical plane 103 may also provide a sufficient number of microbes in the sample to count for use in optimized AST method 101. These three focal sites are labeled site 105, site 107, and site 109 in FIG. 8. In an exemplary version of optimized AST method 101, each focal site is approximately 700×700 microns within single vertical plane 103, rather than capturing three sites in three different vertical planes. AST camera 35, optics system 9, and computer 49 are configured to capture an image of each focal site in consecutive time periods, manipulate each of these images, and thereafter use the data derived from these manipulated images to make a MIC determination. In some embodiments, to use a neural network such as illustrated in FIG. 24 to make a MIC prediction, a test well containing some concentration of an antimicrobial could be inoculated with a microorganism. Data could then be gathered by taking measurements in a manner similar to that described above in the context of the decision tree and neural network classifiers of FIGS. 20-23B and 25. These measurements, along with the identity and concentration of the antimicrobial in the test well could then be provided as inputs to the neural network's input nodes. The values provided on the network's output nodes could then be treated as indications of the likelihood that the concentrations corresponding to the output nodes were the MIC for the microorganism added to the test well. For example, when using a network which had been trained to provide a likelihood that a first concentration is the MIC on a first output node, a likelihood that a second concentration is the MIC on a second output node, and a likelihood that a third concentration is the MIC on a third output node, the concentration corresponding to the output node with the highest value (which might not be the same as the concentration of the antimicrobial in the test well from which the data was gathered) could be treated as the MIC. In some embodiments, rather than using values of the output nodes of a network such as shown in FIG. 24 as directly indicating the MIC, values from such output nodes may be used as inputs to another function that would provide a (potentially more reliable) MIC value. For example, in some embodiments, separate sets of measurements could be gathered from each of a plurality of test wells having different concentrations of the same antimicrobial, and those sets of measurements could each be provided as input to a neural network such as illustrated in FIG. 24. Each of those neural networks would then provide a prediction of the most likely MIC, and those predictions could be provided as input to another function (e.g., a statistical function, such as a mode or median identification function) that would provide a prediction that would be treated as the true MIC for the sample.

[2] = system: P. fluorescens; experiment: Actual MIC (reference read after full growth period)
Procedure: In AST testing, a plurality of test wells are filled with inoculum and increasing concentrations of a number of different antimicrobial agents, for example antibiotics. The different antimicrobial agents may be diluted in a growth medium or liquid medium to concentrations that include those of clinical interest. After incubation, the turbidity will be increased or unchanged in test wells where growth has not been inhibited by the antimicrobics in those test wells. The MIC of each antimicrobial agent is measured by lack of growth with respect to each concentration of antimicrobial agent. It follows that the lowest concentration of antimicrobial agent displaying a lack of growth is the MIC. As set forth above, neural networks can be used to model growth patterns of a bacterial isolate over time at various drug concentrations. As long as the bacteria grows in the well with no drug, then a neural network can be created to use the count and area of the growth well and at the various drug concentrations to make an early prediction of the MIC. […]

[3] = system: E. coli bacteria; experiment: Digital microscopy of E. coli bacteria exposed to antibiotic dilution (elongation); conditions: FIG. 17 versus unexposed FIG. 18
From the text: Data extraction step 117 may be configured to derive information regarding the ratio between the total count of microbes and the total area occupied by all of the microbes in the image. This information may be useful in determining whether the microbes are undergoing elongation over time. Elongation is a precursor to death and indicates the concentration of the antimicrobic dilution is negatively affecting the microbes. More specifically, elongation may occur when microbes such as bacteria encounter an effective amount of antibiotic drugs. For example, FIGS. 17 and 18 depict microbes embodied by E. coli bacteria. FIG. 17 depicts the E. coli after being exposed to a dilution of the antibiotic ampicillin, while FIG. 18 depicts the E. coli free from any ampicillin exposure. […] This elongation is a precursor to the death of the bacteria and illustrates that the concentration of ampicillin is sufficient to neutralize the bacteria. FIG. 18 illustrates normal growth. It follows that the ratio between the total area occupied by all of the bacteria and the bacteria count will increase over time to represent each bacterium elongating. For example, if a particular image sample includes 100 bacteria and each bacterium measures approximately 4 pixels each, the area occupied by the 100 bacteria within the image is 400 pixels. In this image sample, the ratio of bacteria area to bacteria count is 4.0. […]

| actual MIC [2] | SMILES | final predicted MIC ([1]; median of the predictions of the 11 drug concentration wells) | Predicted MIC ([1]; prediction from test well with dilution 0.06 μg/ml) | Predicted MIC ([1]; prediction from test well with dilution 0.12 μg/ml) | Predicted MIC ([1]; prediction from test well with dilution 0.25 μg/ml) | Predicted MIC ([1]; prediction from test well with dilution 0.5 μg/ml) | Predicted MIC ([1]; prediction from test well with dilution 1 μg/ml) | Predicted MIC ([1]; prediction from test well with dilution 2 μg/ml) | Predicted MIC ([1]; prediction from test well with dilution 4 μg/ml) | Predicted MIC ([1]; prediction from test well with dilution 8 μg/ml) | Predicted MIC ([1]; prediction from test well with dilution 16 μg/ml) | Predicted MIC ([1]; prediction from test well with dilution 32 μg/ml) | Predicted MIC ([1]; prediction from test well with dilution 64 μg/ml) | growth morphology after exposure to a dilution of the antibiotic [3] |
| --- | --- | --- | --- | --- | --- | --- | --- | --- | --- | --- | --- | --- | --- | --- |
| example was 2. μg/ml | CC(C)(O/N=C(\C(=O)N[C@@H]1C(=O)N2C(C(=O)[O-])=C(C[n+]3ccccc3)CS[C@H]12)c1csc(N)n1)C(=O)O [Caz, Ceftazidime] | which in this case is 2. μg/ml | 2 µg/mL | 2 µg/mL | 2 µg/mL | 2 µg/mL | 2 µg/mL | 2 µg/mL | 32 µg/mL | 2 µg/mL | 2 µg/mL | 2 µg/mL | 2 µg/mL | – |
| – | CC1(C)S[C@@H]2[C@H](NC(=O)[C@H](N)c3ccccc3)C(=O)N2[C@H]1C(=O)O [ampicillin] | – | – | – | – | – | – | – | – | – | – | – | – | abnormal growth in the form of elongation |

Reference: patent publication US20210332320A1, “ANTIMICROBIC SUSCEPTIBILITY TESTING USING MACHINE LEARNING” (Beckman Coulter, Inc., priority 2018, published 2021)
